# According to patent US12441733B2, “Substituted 2,4-dioxotetrahydropyrimidines as intermediates in the synthesis of bruton's tyrosine kinase inhibitors” (Novartis AG, priority 2018, dated 2025):
# Target: T1, IKZF3-GFP (Homo sapiens, UniProt Q96SW2+Q9UKT9)
# T1 construct: expressed in transfected cells; host or cells: HEK293A (Invitrogen R70507), lentiviral transduction with pLenti6-IKZF3-GFP-Ires-RFP, blasticidin selection
# Assay: IKZF3-GFP protein abundance flow cytometry assay in HEK293A cells
# Type: cell-based
# Conditions: HEK293A IKZF3-GFP-iresRFP cells, 24 h; for DC50: GFP signal by flow cytometry; for IKZF3 deg Amax: % protein remaining at maximum degradation
# Procedure: BTK-GFP and IKZF3-GFP protein abundance flow cytometry assay in HEK293A cells:
# Degradation of BTK or IKZF3 was measured in HEK293A cells (Invitrogen R70507) expressing either BTK-GFP and RFP or IKZF3-GFP and RFP from a stably integrated bicistronic BTK-GFP-iresRFP or IKZF3-GFP-iresRFP construct, respectively. Reduction of the GFP signal measured by flow cytometry served as readout for BTK or IKZF3 degradation after degrader treatment.
# By analogy the bicistronic pLenti6-IKZF3-GFP-iresRFP was engineered by gateway cloning of IKZF3 from a pENTR221-IKZF3(STOP-Leu) construct into the previously described pLenti6-DEST-GFP-Ires-RFP vector using the LR Clonase kit (Invitrogen 11791-019) according to the manufacturer's manual. All vectors described have been sequenced for verification.
# ii) Engineering of Stably Expressing 293A BTK-GFP-Ires-RFP and IKZF3-GFP-Ires-RFP Sensor Cells
# 293A BTK-GFP-Ires-RFP and IKZF3-GFP-ires-RFP sensor cells were generated by lentiviral vector transduction using the pLenti6-BTK-GFP-Ires-RFP or pLenti6-IKZF3-GFP-Ires-RFP sensor construct described before. Lentiviral particles were produced in HEK293FT cells (Invitrogen R70007) by co-transfection of 500 ng pLenti6-BTK-GFP-ires-RFP or pLenti6-IKZF3-GFP-Ires-RFP, 500 ng delta8.71 and 200 ng pVSVG diluted in 100 μl OptiMEM serum free medium (Invitrogen #11058-021) that was mixed after 5 min preincubation with 3 μl of Lipofectamine2000 (Invitrogen #11668-019) in 97 μl OptiMEM serum free medium. The mix was incubated for another 20 min at RT and then added on 1 ml of a freshly prepared suspension of HEK293FT cells in a well of a 6-well plate (concentration 1.2×10^6 cells/ml). 1 day after transfection, the medium was replaced with 1.5 ml of complete growth medium (DMEM high Glucose+10% FCS+1% L-Glutamine+1% NEAA+1% NaPyr.). 48 h post transfection supernatant containing viral transducing particles was collected and frozen at −80° C.
# Two days before transduction with viral particles 1×10^5 HEK293A cells (Invitrogen R70507) were seeded in 2 ml growth medium in a well of a 6-well plate. Infection was performed with 90 μl of collected supernatant containing viral transducing particles in 1 ml medium including 8 μg/ml polybrene. 24 h post infection, stably transfected cells were selected with blasticidin at a concentration of 8 μg/ml.
# Iii) Quantitative BTK-GFP and IKZF3-GFP Abundance Measurements
# Stable HEK293A-BTK-GFP-iresRFP cells were maintained in complete growth medium (DMEM high Glucose+10% FCS+1% L-Glutamine+1% NEAA+1% NaPyr.) with passaging performed twice per week. On Day 0, HEK293A-BTK-GFP-iresRFP or HEK293A-IKZF3-GFP-iresRFP and HEK293A-iresRFP cells were seeded at 10,000 cells/well in a 96-well microtiter plate in 260 μl complete medium. On Day 1, cells were treated in duplicate with 10-point 1:3 dilution series of compound using the HP D300 Digital Dispenser (Tecan). DMSO concentrations were normalized across the plate to 0.1%. On Day 2, after 24 h of incubation at 37° C., treatment media was discarded, cells rinsed with 100 μl/well PBS and then detached using 40 μl trypsin/well for 5 min. Trypsin was neutralized with 100 μl/well PBS+20% FCS). Flow cytometry was performed on the samples using the BD FACS CANTO II (Becton Dickinson). Cell identification was then performed using forward (FSC) vs. side scatter (SSC) plots. […] Median GFP values for 5,000 single cells are used to determine BTK levels. Median GFP values from HEK293A-iresRFP are used as a background signal and thus defining 0% BTK signal. Median GFP values from DMSO treated HEK293A-BTK-GFP-iresRFP or HEK293A-IKZF3-GFP-iresRFP are used to define 100% BTK signal for subsequent DC50 curves (concentration at 50% BTK degradation).
# T1 sequence (Q9UKT9 whole entry): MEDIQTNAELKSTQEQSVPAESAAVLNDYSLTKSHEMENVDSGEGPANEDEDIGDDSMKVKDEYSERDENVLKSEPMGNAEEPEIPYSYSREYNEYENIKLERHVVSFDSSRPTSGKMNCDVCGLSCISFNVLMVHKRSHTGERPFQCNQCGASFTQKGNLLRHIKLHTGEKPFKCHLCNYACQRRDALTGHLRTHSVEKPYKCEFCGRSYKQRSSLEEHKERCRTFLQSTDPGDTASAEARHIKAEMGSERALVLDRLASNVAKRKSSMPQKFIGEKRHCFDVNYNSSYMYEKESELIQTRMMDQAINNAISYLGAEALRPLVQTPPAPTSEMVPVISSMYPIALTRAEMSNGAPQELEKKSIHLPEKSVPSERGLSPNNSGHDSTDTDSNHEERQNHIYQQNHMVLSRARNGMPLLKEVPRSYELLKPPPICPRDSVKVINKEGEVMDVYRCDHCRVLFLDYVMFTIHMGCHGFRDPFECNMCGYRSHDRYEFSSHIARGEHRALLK
# T1 sequence (Q96SW2 whole entry): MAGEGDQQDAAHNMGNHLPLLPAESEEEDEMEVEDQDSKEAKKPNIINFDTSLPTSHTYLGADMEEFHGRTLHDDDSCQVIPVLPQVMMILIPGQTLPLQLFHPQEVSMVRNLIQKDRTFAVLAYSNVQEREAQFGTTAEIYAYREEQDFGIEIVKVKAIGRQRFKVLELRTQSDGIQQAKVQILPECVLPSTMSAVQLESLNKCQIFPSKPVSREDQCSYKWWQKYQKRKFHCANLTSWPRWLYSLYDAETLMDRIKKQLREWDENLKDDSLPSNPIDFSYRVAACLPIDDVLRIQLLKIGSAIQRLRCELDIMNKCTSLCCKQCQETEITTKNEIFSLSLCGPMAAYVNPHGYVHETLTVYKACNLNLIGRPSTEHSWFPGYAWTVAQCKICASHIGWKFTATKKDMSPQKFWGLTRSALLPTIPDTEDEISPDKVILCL
# T1 sequence (Q16531 whole entry partner): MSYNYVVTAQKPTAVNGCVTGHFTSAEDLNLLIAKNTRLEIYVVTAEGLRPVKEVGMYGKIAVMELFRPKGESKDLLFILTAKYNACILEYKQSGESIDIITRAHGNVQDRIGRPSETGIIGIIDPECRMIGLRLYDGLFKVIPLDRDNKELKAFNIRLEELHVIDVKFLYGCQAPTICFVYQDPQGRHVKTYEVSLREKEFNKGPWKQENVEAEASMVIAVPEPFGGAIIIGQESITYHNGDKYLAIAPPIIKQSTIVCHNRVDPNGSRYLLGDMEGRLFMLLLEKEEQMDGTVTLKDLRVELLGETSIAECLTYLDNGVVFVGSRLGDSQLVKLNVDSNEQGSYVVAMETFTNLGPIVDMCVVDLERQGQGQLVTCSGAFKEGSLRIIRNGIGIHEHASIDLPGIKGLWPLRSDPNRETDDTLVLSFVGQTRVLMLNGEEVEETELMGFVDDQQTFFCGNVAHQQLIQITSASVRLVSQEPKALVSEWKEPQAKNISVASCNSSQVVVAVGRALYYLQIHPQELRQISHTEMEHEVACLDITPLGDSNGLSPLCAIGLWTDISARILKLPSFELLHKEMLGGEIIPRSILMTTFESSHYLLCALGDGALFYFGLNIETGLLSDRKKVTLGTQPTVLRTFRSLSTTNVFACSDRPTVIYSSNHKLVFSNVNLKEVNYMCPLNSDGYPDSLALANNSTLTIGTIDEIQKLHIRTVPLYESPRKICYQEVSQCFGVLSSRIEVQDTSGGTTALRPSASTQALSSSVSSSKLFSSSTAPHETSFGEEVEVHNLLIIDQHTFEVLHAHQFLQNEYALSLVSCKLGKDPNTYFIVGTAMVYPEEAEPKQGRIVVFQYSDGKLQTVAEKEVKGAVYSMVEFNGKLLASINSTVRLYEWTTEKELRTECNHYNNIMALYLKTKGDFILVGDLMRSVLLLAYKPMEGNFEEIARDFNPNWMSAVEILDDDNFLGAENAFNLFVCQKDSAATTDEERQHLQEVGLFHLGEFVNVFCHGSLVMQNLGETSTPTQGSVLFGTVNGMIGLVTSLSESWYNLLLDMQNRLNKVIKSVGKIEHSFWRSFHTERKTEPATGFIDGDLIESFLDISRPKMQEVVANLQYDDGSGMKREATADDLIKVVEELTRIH
SMILES,DC50,IKZF3 deg Amax
"Cc1ccc(C(=O)N2CCC3(CCN(CCc4ccc(-c5cc6c(-c7cc(F)cc(NC(=O)c8ccc(C(C)(C)O)cc8F)c7C)ncnc6[nH]5)cc4)CC3)CC2)cc1N1CCC(=O)NC1=O [Compound 5, N-(3-(6-(4-(2-(9-(3-(2,4-Dioxotetrahydropyrimidin-1(2H)-yl)-4-methylbenzoyl)-3,9-diazaspiro[5.5]undecan-3-yl)ethyl)phenyl)-7H-pyrrolo[2,3-d]pyrimidin-4-yl)-5-fluoro-2-methylphenyl)-2-fluoro-4-(2-hydroxypropan-2-yl)benzamide]",> 370 nM,103.3%
"COc1ccc(C(=O)N2CCC(CN3CCC(Oc4ccc(-c5cc6c(-c7cc(F)cc(NC(=O)c8ccc(C(C)(C)O)cc8F)c7C)ncnc6[nH]5)cc4)CC3)CC2)cc1N1CCC(=O)NC1=O [Compound 19, N-(3-(6-(4-((1-((1-(3-(2,4-Dioxotetrahydropyrimidin-1(2H)-yl)-4-methoxybenzoyl)piperidin-4-yl)methyl)piperidin-4-yl)oxyl)phenyl)-7H-pyrrolo[2,3-d]pyrimidin-4-yl)-5-fluoro-2-methylphenyl)-2-fluoro-4-(2-hydroxypropan-2-yl)benzamide]",> 10000 nM,100.5%
"Cc1ccc(C(=O)N(C)CCCCCNCc2ccc(-c3cc4c(-c5cc(F)cc(NC(=O)c6ccc(C(C)(C)O)cc6F)c5C)ncnc4[nH]3)cc2)cc1N1CCC(=O)NC1=O [Compound 30, 3-(2,4-Dioxotetrahydropyrimidin-1(2H)-yl)-N-(5-((4-(4-(5-fluoro-3-(2-fluoro-4-(2-hydroxypropan-2-yl)benzamido)-2-methylphenyl)-7H-pyrrolo[2,3-d]pyrimidin-6-yl)benzyl)amino)pentyl)-N,4-dimethylbenzamide]",> 3300 nM,101.1%
"COc1ccc(C(=O)N2CCC(OC3CCN(Cc4ccc(-c5cc6c(-c7cc(F)cc(NC(=O)c8ccc(C(C)(C)O)cc8F)c7C)ncnc6[nH]5)cc4)CC3)CC2)cc1N1CCC(=O)NC1=O [Compound 8, N-(3-(6-(4-((4-((1-(3-(2,4-dioxotetrahydropyrimidin-1(2H)-yl)-4-methoxybenzoyl)piperidin-4-yl)oxyl)piperidin-1-yl)methyl)phenyl)-7H-pyrrolo[2,3-d]pyrimidin-4-yl)-5-fluoro-2-methylphenyl)-2-fluoro-4-(2-hydroxypropan-2-yl)benzamide]",> 2600 nM,103.3%

# Next, values leading:
DC50,IKZF3 deg Amax,SMILES
> 10000 nM,94.5%,"COc1ccc(C(=O)NCCN2CCOC3(CCN(Cc4ccc(-c5cc6c(-c7cc(F)cc(NC(=O)c8ccc(C(C)(C)O)cc8F)c7C)ncnc6[nH]5)cc4)CC3)C2)cc1N1CCC(=O)NC1=O [Compound 39, N-(3-(6-(4-((4-(2-(3-(2,4-dioxotetrahydropyrimidin-1(2H)-yl)-4-methoxybenzamido)ethyl)-1-oxa-4,9-diazaspiro[5.5]undecan-9-yl)methyl)phenyl)-7H-pyrrolo[2,3-d]pyrimidin-4-yl)-5-fluoro-2-methylphenyl)-2-fluoro-4-(2-hydroxypropan-2-yl)benzamide]"
> 1100 nM,99.7%,"Cc1c(NC(=O)c2ccc(C(C)(C)O)cc2F)cc(F)cc1-c1ncnc2[nH]c(-c3ccc(CCN4CCC5(CC4)CCN(C(=O)c4ccc(F)c(N6CCC(=O)NC6=O)c4)CC5)cc3)cc12 [Compound 47, N-(3-(6-(4-(2-(9-(3-(2,4-dioxotetrahydropyrimidin-1(2H)-yl)-4-fluorobenzoyl)-3,9-diazaspiro[5.5]undecan-3-yl)ethyl)phenyl)-7H-pyrrolo[2,3-d]pyrimidin-4-yl)-5-fluoro-2-methylphenyl)-2-fluoro-4-(2-hydroxypropan-2-yl)benzamide]"
